Legend:
[1] = Volume of distribution at steady state in Sprague-Dawley rat at 1 mg/kg, iv; format: ADME, organism-based; parameters: dose 1 mg/kg, route intravenous; conditions: in vivo, read-out: Vdss
[2] = Lipophilicity, log D of the compound; format: physicochemical; conditions: octanol/water
[3] = target: T1, Transient receptor potential cation channel subfamily V member 4 (Homo sapiens, UniProt Q9HBA0); test: Antagonist activity at human TRPV4 expressed in CHOK1 cells assessed as inhibition of PF-04674114/GSK1016790A-induced changes in intracellular calcium level measured for 5 mins by FLIPR assay; format: cell-based, CHO-K1
T1 sequence (Q9HBA0 whole entry): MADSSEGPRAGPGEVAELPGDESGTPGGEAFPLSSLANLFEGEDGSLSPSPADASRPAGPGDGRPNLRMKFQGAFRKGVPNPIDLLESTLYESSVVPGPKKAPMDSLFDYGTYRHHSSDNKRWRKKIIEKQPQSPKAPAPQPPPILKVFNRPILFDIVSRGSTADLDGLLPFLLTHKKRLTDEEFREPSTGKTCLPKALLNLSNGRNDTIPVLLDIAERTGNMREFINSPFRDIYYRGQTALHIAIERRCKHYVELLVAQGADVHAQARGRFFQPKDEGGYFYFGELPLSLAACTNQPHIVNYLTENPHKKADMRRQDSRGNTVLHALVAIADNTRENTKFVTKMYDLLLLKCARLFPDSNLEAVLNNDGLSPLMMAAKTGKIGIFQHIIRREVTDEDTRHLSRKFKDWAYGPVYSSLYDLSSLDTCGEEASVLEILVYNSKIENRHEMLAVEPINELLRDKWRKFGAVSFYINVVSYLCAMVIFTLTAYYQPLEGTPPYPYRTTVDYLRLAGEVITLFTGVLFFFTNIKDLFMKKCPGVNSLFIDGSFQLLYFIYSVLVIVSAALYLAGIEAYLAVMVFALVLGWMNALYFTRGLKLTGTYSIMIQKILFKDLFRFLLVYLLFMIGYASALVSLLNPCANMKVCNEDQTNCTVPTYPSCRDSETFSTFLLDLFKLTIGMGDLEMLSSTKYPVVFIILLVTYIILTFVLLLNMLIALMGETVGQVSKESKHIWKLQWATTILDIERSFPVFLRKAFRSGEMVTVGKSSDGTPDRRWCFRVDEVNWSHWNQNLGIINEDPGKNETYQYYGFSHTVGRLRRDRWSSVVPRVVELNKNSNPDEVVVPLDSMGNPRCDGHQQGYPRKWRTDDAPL

[4] = target: T2, Transient receptor potential cation channel subfamily A member 1 (Homo sapiens, UniProt O75762); test: Antagonist activity at human TRPA1
T2 sequence (O75762 whole entry): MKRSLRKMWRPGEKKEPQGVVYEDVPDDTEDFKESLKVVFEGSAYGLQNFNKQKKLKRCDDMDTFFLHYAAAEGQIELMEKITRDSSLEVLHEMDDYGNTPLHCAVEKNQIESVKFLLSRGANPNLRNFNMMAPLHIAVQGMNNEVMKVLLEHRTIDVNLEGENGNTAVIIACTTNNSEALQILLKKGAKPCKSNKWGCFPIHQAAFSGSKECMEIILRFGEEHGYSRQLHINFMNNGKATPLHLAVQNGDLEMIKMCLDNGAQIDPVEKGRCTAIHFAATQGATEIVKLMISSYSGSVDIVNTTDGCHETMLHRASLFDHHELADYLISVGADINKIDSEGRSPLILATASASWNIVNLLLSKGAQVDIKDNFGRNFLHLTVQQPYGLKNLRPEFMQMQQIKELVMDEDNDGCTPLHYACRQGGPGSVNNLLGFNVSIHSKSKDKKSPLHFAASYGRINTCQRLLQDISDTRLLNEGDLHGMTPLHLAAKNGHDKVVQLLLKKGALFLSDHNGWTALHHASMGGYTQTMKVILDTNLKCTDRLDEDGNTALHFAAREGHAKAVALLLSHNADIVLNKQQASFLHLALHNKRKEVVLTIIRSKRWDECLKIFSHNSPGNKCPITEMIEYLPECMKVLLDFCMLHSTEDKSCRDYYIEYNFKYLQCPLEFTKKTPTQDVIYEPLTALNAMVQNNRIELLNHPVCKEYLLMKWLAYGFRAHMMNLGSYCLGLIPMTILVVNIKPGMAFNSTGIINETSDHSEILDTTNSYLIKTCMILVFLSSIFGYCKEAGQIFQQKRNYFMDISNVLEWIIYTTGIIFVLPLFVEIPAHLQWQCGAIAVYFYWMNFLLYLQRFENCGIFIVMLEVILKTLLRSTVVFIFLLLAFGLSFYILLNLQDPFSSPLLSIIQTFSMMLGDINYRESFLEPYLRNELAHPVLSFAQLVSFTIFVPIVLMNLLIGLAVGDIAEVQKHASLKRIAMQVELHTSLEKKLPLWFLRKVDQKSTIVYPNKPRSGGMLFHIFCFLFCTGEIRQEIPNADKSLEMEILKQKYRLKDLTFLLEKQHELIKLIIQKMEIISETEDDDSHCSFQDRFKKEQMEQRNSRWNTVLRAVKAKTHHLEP

[5] = target: T3, Transient receptor potential cation channel subfamily V member 1 (Homo sapiens, UniProt Q8NER1); test: Antagonist activity at human TRPV1
T3 sequence (Q8NER1 whole entry): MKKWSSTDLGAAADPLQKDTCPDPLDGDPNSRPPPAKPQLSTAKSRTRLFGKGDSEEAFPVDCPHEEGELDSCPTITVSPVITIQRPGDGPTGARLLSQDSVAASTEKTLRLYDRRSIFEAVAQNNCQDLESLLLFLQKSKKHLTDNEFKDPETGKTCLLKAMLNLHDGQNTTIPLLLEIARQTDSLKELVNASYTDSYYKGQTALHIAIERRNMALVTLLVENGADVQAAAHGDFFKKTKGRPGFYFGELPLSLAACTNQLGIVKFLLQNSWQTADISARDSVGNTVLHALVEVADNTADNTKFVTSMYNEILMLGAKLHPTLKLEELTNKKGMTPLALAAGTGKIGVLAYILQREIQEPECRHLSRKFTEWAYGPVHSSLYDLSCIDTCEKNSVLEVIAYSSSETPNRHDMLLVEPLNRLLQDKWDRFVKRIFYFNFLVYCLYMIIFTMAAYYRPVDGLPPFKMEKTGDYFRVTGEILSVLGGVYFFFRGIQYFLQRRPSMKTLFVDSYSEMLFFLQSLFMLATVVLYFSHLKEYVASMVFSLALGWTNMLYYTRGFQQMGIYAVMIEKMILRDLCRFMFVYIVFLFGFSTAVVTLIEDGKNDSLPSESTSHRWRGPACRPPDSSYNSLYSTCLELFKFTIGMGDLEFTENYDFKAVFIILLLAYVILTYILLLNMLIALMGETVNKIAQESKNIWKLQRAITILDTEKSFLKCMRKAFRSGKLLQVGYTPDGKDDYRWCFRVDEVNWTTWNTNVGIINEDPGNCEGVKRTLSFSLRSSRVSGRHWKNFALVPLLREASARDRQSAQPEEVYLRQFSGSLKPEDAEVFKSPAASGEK

Rattus norvegicus [6] = test: Unbound clearance in Sprague-Dawley rat at 1 mg/kg, iv; format: ADME, organism-based; parameters: dose 1 mg/kg, route intravenous; conditions: in vivo
CYP3A4 = CYP3A4 (Homo sapiens, UniProt P08684); test: Inhibition of CYP3A4 (unknown origin) at 3 uM relative to control; format: ADME
CYP1A2 = target: T4, CYP1A2 (Homo sapiens, UniProt P05177); test: Inhibition of CYP1A2 (unknown origin) at 3 uM relative to control; format: ADME
T4 sequence (P05177 whole entry): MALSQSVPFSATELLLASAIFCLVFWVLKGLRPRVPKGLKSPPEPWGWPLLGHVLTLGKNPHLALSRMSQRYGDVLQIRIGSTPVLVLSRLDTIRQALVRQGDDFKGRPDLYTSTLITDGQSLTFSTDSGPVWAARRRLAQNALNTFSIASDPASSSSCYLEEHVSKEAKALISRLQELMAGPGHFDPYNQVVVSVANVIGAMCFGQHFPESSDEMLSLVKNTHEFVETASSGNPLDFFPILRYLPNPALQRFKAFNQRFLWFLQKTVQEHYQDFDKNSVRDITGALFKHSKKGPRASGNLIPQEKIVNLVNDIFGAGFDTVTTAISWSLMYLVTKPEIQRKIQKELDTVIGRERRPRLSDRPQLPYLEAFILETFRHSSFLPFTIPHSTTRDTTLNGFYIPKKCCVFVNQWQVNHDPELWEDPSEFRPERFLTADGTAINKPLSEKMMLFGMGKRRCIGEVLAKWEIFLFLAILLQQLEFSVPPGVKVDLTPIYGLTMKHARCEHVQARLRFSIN

[7] = target: T3, Transient receptor potential cation channel subfamily V member 1; test: Agonist activity at human TRPV1
Rattus norvegicus [8] = test: fCmax in Sprague-Dawley rat at 2 mg/kg, po; format: ADME, organism-based; parameters: dose 2 mg/kg, route oral; conditions: in vivo
[9] = Clearance in Sprague-Dawley rat at 1 mg/kg, iv; format: ADME, organism-based; parameters: dose 1 mg/kg, route intravenous; conditions: in vivo
CYP2C9 = CYP2C9 (Homo sapiens, UniProt P11712); test: Inhibition of CYP2C9 (unknown origin) at 3 uM relative to control; format: ADME
[10] = Tmax in Sprague-Dawley rat at 2 mg/kg, po; format: ADME, organism-based; parameters: dose 2 mg/kg, route oral; conditions: in vivo
[11] = Oral bioavailability in Sprague-Dawley rat at 2 mg/kg; format: ADME, organism-based; conditions: in vivo
[12] = target: T1, Transient receptor potential cation channel subfamily V member 4; test: Agonist activity at human TRPV4 expressed in CHOK1 cells assessed as changes in intracellular calcium level measured for 5 mins by FLIPR assay; format: cell-based, CHO-K1
CYP2D6 = CYP2D6 (Homo sapiens, UniProt P10635); test: Inhibition of CYP2D6 (unknown origin) at 3 uM relative to control; format: ADME
[13] = target: T5, Transient receptor potential cation channel subfamily V member 4 (Rattus norvegicus, UniProt Q9ERZ8); test: Agonist activity at rat TRPV4 expressed in CHOK1 cells assessed as changes in intracellular calcium level measured for 5 mins by FLIPR assay; format: cell-based, CHO-K1
T5 sequence (Q9ERZ8 whole entry): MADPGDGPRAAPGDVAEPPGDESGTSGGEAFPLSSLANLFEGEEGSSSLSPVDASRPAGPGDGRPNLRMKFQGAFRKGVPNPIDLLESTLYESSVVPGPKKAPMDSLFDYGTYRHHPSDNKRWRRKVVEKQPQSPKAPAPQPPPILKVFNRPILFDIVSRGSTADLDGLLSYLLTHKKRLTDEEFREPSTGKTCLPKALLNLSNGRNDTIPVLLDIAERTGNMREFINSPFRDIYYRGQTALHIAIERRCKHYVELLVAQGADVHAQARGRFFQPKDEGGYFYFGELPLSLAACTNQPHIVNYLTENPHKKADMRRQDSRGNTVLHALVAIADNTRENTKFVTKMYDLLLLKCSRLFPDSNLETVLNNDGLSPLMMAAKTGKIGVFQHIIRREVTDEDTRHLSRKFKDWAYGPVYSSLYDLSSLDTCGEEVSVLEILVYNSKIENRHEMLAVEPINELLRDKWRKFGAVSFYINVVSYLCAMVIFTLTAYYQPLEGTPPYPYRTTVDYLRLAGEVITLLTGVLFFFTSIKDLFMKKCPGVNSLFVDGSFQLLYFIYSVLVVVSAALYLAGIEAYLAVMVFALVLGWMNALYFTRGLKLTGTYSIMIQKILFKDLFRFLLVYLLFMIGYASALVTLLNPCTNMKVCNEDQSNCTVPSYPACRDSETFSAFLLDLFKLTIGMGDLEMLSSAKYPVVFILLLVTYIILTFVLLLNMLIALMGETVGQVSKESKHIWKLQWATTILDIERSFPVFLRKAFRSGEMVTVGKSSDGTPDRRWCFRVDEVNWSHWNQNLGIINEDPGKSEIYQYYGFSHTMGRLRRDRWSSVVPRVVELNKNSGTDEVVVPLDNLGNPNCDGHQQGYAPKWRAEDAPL

[14] = target: T5, Transient receptor potential cation channel subfamily V member 4; test: Antagonist activity at rat TRPV4 expressed in CHOK1 cells assessed as inhibition of PF-04674114/GSK1016790A-induced changes in intracellular calcium level measured for 5 mins by FLIPR assay; format: cell-based, CHO-K1
[15] = Clearance in human liver microsomes; format: ADME; conditions: read-out: CLH
[16] = target: T2, Transient receptor potential cation channel subfamily A member 1; test: Agonist activity at human TRPA1
[17] = Clearance in rat liver microsomes; format: ADME; conditions: read-out: CLH
[18] = Half life in Sprague-Dawley rat at 1 mg/kg, iv; format: ADME, organism-based; parameters: dose 1 mg/kg, route intravenous; conditions: in vivo
[19] = target: Voltage-gated inwardly rectifying potassium channel KCNH2 (Homo sapiens, UniProt Q12809); test: Inhibition of dofetilide binding to human ERG
[20] = target: Transient receptor potential cation channel subfamily M member 8 (Homo sapiens, UniProt Q7Z2W7); test: Antagonist activity at human TRPM8
Chain of Transient receptor potential cation channel subfamily M member 8 (Q7Z2W7 whole entry): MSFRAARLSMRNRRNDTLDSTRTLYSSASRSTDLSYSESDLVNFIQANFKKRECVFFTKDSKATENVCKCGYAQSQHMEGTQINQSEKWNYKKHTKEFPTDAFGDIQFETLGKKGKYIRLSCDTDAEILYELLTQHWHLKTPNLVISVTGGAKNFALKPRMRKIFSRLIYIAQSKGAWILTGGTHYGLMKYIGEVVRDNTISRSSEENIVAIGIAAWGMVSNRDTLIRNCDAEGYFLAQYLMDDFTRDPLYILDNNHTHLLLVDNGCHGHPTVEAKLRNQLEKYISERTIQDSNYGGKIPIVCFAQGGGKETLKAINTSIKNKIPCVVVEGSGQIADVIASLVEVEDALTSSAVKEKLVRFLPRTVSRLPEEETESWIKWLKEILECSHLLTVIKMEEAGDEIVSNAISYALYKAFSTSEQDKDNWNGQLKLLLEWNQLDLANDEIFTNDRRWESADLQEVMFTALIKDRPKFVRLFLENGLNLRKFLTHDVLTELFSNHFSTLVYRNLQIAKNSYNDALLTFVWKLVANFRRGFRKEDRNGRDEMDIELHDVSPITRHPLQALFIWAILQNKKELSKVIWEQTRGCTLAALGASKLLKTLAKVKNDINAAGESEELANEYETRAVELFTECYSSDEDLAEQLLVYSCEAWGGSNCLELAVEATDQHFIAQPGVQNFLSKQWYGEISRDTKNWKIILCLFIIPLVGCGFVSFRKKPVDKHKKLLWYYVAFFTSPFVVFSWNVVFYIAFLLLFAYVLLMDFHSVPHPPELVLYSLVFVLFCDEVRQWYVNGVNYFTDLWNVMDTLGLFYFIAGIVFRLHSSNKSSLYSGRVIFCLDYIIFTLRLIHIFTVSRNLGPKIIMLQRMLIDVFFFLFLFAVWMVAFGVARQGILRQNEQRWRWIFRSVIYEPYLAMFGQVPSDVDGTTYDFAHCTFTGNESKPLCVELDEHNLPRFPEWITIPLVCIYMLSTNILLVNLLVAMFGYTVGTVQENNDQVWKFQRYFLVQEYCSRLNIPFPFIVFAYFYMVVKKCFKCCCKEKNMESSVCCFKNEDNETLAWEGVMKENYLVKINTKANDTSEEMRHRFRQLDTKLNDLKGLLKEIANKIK

[21] = target: T1, Transient receptor potential cation channel subfamily V member 4; test: Antagonist activity at human TRPV4

Q: What does the source list for N#Cc1ccc(OCC2(O)CN(S(=O)(=O)c3ccc(Cl)cc3Cl)C2)cc1F?
A: Vd [1]: 4.3 L/kg; logD [2]: 3.2; IC50 [3]: 0.0038 µM; IC50 [4]: > 12.5 µM; IC50 [5]: > 16 µM; CL free (Rattus norvegicus [6]): 756 mL/min/kg; inhibition at 3 µM (CYP3A4): < 20%; inhibition at 3 µM (CYP1A2): < 20%; EC50 [7]: > 20 µM; fCmax (Rattus norvegicus [8]): 16 nM; clearance [9]: 23.5 mL/min/kg; inhibition at 3 µM (CYP2C9): < 20%; Tmax [10]: 0.75 h; bioavailability [11]: 73%; EC50 [12]: > 1 µM; inhibition at 3 µM (CYP2D6): < 20%; EC50 [13]: > 1 µM; IC50 [14]: 0.0341 µM; microsomal CLint [15]: < 8.1 µL/min/mg; EC50 [16]: > 12.5 µM; microsomal CLint [17]: 87 µL/min/mg; half-life [18]: 2.2 h; IC50 [19]: 9.67 µM; IC50 [20]: 9.58 µM

Q: Which IC50 [3] does the source give for N#Cc1ccc(OCC2(O)CCN(S(=O)(=O)c3ccc(Cl)cc3Cl)CC2)cc1F here?
A: Its IC50 is 0.0129 µM.

Q: Which IC50 [3] does the source give for N#Cc1ccc(OCC2(O)CN(S(=O)(=O)c3ccc(Cl)cc3C#N)C2)cc1Cl here?
A: Its IC50 is 0.0036 µM.

Q: For N#Cc1ccc(S(=O)(=O)N2CCC(O)(COc3ccc(C#N)c(F)c3)CC2)c(C#N)c1, which IC50 [3] is on record?
A: Its IC50 is 0.0505 µM.

Q: For N#Cc1ccc(OCC2(O)CN(S(=O)(=O)c3ccc(Cl)cc3C#N)C2)cc1F, which IC50 [3] is on record?
A: The IC50 was 0.0034 µM.

Q: With O=S(=O)(c1ccc(Cl)cc1Cl)N1CCC(O)(CSc2ccncc2)CC1 as the compound, how does the IC50 [21] read?
A: Its IC50 is 2.2 µM.

Q: For N#Cc1ccc(S(=O)(=O)N2CCC(O)(COc3ccc(C#N)c(F)c3)CC2)c(Cl)c1, which IC50 [3] is on record?
A: The IC50 was 0.0491 µM.

Q: With N#Cc1ccc(S(=O)(=O)N2CC(O)(COc3ccc(C#N)c(Cl)c3)C2)c(Cl)c1 as the compound, how does the IC50 [3] read?
A: Its IC50 is 0.004 µM.

Q: With N#Cc1ccc(OCC2(O)CCN(S(=O)(=O)c3ccc(Cl)cc3Cl)CC2)cc1 as the compound, how does the IC50 [3] read?
A: Its IC50 is 0.0497 µM.

Q: And the IC50 [4]?
A: Its IC50 is > 12.5 µM.

Q: What about the IC50 [5] of the same compound?
A: The IC50 was > 3.9 µM.

Q: And the EC50 [7]?
A: Its EC50 is > 20 µM.

Q: And the EC50 [12]?
A: The EC50 was > 1 µM.

Q: And the EC50 [13]?
A: The EC50 was > 1 µM.

Q: And the IC50 [14]?
A: Its IC50 is 1.15 µM.

Q: And the EC50 [16]?
A: The EC50 was > 12.5 µM.

Q: What about the IC50 [20] of the same compound?
A: Its IC50 is 4.8 µM.
